Values quoted from earlier work, collected in US6472362B1, “Detergent compositions in tablet form” (Unilever Home & Personal Care USA division of Conopco, Inc., priority 1997, dated 2002).
Like-named read-outs stand apart in the source and are kept apart here.

[1] = other common materials, at 200° C. (so in the source)

| solubility in water (at 20° C.) | Water Solubility (g/100 g) (highly water-soluble materials, saturated solution in 100 grams of water at 20° C.) | Structure (SMILES) | Water Solubility (g/100 g) [1] |
| --- | --- | --- | --- |
|  |  | O=BO[O-].[Na+] [Sodium perborate anhydrous] | 3.7 g/100 g |
|  |  | O=P(O)(O)OP(=O)(O)OP(=O)(O)O [Sodium tripolyphosphate anhydrous] | 15 g/100 g |
| exceeding 100 gms per 100 ml water | >100 g/100 g | NC(N)=O [Urea] |  |
